From patent publication US4668770A, “Renin inhibitory tripeptides” (Merck & Co., Inc., priority 1984, dated 1987)
Non-standard residues stand in square brackets, D forms with d. Residues, ends and D or L forms follow the SMILES beside them. *: point of attachment. Sta = CC(C)C[C@H](N)[C@@H](O)CC(=O)O; Phenoxyacetyl = O=C(COc1ccccc1)*; Boc = CC(C)(C)OC(=O)*

Key:
hog kidney renin = hog kidney renin (Sus scrofa, UniProt A0A287APG1); assay: Hog renin inhibition; assay type: biochemical; settings: for IC50: pH 7.3, concentration producing 50% inhibition of renin activity, read-out: I50
hog kidney renin, sequence (A0A287APG1 67-407): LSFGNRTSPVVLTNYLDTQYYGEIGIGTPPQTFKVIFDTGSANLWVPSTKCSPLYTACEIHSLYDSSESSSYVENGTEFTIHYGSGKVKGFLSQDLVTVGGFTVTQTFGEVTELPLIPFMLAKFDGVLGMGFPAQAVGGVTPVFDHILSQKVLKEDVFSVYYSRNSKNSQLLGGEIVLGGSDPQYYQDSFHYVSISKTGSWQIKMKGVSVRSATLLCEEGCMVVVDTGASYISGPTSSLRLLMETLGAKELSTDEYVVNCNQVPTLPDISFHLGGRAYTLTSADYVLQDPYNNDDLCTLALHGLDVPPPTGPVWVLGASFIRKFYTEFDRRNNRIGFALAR
Description: An assay was carried out in order to determine the inhibitory potency of the peptides of the present invention. The assay measured the inhibition of hog kidney renin, and was in accordance with the procedure described in Rich et al., J. Med. Chem. 23: 27, 1980, except that a pH of 7.3 was used. The results of the assay, illustrated in the table below, are expressed as I50 values, which refers to the concentration of peptide inhibitor necessary to produce 50% inhibition of renin activity. This I50 value is obtained typically by plotting data from four inhibitor concentrations.

human kidney renin = biological target: T1, human kidney renin (Homo sapiens, UniProt P00797); assay: Human renin inhibition; assay type: biochemical; settings: purified human kidney renin; dissociation constant of the inhibited enzyme-inhibitor complex
T1 construct: human kidney renin purified as described in Bangham; from tissue; host or cells: human kidney
T1 sequence (P00797 67-406): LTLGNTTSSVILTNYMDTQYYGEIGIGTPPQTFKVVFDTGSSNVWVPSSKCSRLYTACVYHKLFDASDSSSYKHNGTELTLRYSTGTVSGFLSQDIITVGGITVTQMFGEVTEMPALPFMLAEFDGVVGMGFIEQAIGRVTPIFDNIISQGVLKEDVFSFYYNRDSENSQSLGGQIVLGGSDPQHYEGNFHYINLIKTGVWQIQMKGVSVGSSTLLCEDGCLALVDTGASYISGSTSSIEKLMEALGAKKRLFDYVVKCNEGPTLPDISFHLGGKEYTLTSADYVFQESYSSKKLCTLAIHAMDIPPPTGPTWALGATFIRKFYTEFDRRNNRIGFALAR
Description: An assay was carried out in order to determine the inhibitory potency of the peptides of the present invention. The assay measured the inhibition of human kidney renin purified as described in Bangham, D. R., Robertson, I., Robinson, J. I. S., Robinson, C. J., and Tree, M., Clinical Science and Molecular Medicine, 48 (Supp. 2): 136s-159s (1975), and further purified by affinity chromatography on pepstatin-aminohexyl-Sepharase as described in Poe, M., Wu., J. K., Florance, J. R., Radkey, J. A., Bennett, C. D., and Hoagsteen, K., J. Biol. Chem. (1982, in press). The assay was also in accordance with Poe et al. cited above. Results are expressed as KI values, which refer to the dissociation constant of the inhibited enzyme--inhibitor complex. This KI value was obtained as described above. […]

| Molecule | IC50 (hog kidney renin) | Ki (human kidney renin) | further results |
| --- | --- | --- | --- |
| CC(C)C[C@H](NC(=O)C[C@H](O)[C@H](CC(C)C)NC(=O)[C@H](Cc1c[nH]cn1)NC(=O)C(C=Cc1ccccc1)Cc1ccccc1)C(=O)NCc1ccccc1 (stereo partly drawn) [2-phenethenyl-3-phenylpropionyl-His-Sta-Leu-benzylamide] | 260 nM | – | – |
| CC(C)C[C@H](NC(=O)C[C@H](O)[C@H](Cc1ccccc1)NC(=O)[C@H](Cc1c[nH]cn1)NC(=O)C(Cc1ccccc1)Cc1ccccc1)C(=O)NCc1ccccc1 [2-benzyl-3-phenylpropionyl-His-AHPPA-Leu-benzylamide] | 2.6 nM | 34 nM | – |
| CC(C)C[C@H](NC(=O)C[C@H](O)[C@H](CC(C)C)NC(=O)[C@H](Cc1c[nH]cn1)NC(=O)C(Cc1ccccc1)Cc1ccccc1)C(=O)NCc1ccccc1 [2-benzyl-3-phenylpropionyl-His-Sta-Leu-benzylamide] | 150 nM | 830 nM | – |
| CC(C)C[C@H](NC(=O)C[C@H](O)[C@H](CC(C)C)NC(=O)[C@H](Cc1c[nH]cn1)NC(=O)C(CCCc1ccccc1)Cc1ccccc1)C(=O)NCc1ccccc1 (stereo partly drawn) [2-phenylpropyl-3-phenylpropionyl-His-Sta-Leu-benzylamide] | 31 nM | 97 nM | – |
| CC(C)C[C@H](NC(=O)C[C@H](O)[C@H](Cc1ccccc1)NC(=O)[C@H](Cc1c[nH]cn1)NC(=O)CCc1ccccc1)C(=O)NCc1ccccc1 [3-phenylpropionyl-His-AHPPA-Leu-benzylamide] | 35 nM | 71 nM | – |
| His-Sta-Ala-Phe-methyl ester [His--Sta--Ala--Phe--methyl ester] | – | – | inhibition of renin activity at 10^-4 (printed in the I50 column) (hog kidney renin; pH 7.3, at 10^-4 M): 5% |
| CC(C)C[C@H](NC(=O)C[C@H](O)[C@H](CC(C)C)NC(=O)[C@H](Cc1c[nH]cn1)NC(=O)OC(C)(C)C)C(=O)N[C@@H](Cc1ccccc1)C(N)=O [BOC--His--Sta--Leu--Phe--amide, BOC^1 -His-Sta-Leu-Phe-amide] (Boc-H[Sta]LF-NH2) | 400000 nM | – | – |
| CC(C)C[C@H](NC(=O)C[C@H](O)[C@H](CC(C)C)NC(=O)[C@H](Cc1c[nH]cn1)NC(=O)C(CCc1ccccc1)Cc1ccccc1)C(=O)NCc1ccccc1 (stereo partly drawn) [2-phenethyl-3-phenylpropionyl-His-Sta-Leu-benzylamide] | 370 nM | – | – |
| CC(C)C[C@H](NC(=O)C[C@H](O)[C@H](CC(C)C)NC(=O)[C@H](Cc1c[nH]cn1)NC(=O)CCc1ccccc1)C(=O)NCc1ccccc1 [3-phenylpropionyl-His-Sta-Leu-benzylamide] | – | – | inhibition at 0.1 µM (hog kidney renin; pH 7.3, at 10^-7 M, read-out: inhibition of renin activity at 10^-7 (printed in the I50 column)): 2% |
| CC(C)CC=CC(Cc1ccccc1)C(=O)N[C@@H](Cc1c[nH]cn1)C(=O)N[C@@H](CC(C)C)[C@@H](O)CC(=O)N[C@@H](CC(C)C)C(=O)NCc1ccccc1 (stereo partly drawn) [2-(4,4-dimethyl-1-butenyl)-3-phenylpropionyl-His-Sta-Leu-benzylamide] | 610 nM | – | – |
| CC(C)C[C@H](NC(=O)C[C@H](O)[C@H](CC(C)C)NC(=O)[C@H](Cc1c[nH]cn1)NC(=O)C(C)Cc1ccccc1)C(=O)NCc1ccccc1 (single isomer, unassigned) [2-methyl-3-phenylpropionyl-His--Sta--Leu--benzylamide ("B" Isomer), 2-methyl-3-phenylpropionyl-His-Sta-Leu-benzylamide] | 940 nM | – | – |
| CC(C)C[C@H](NC(=O)C[C@H](O)[C@H](CC(C)C)NC(=O)[C@H](Cc1c[nH]cn1)NC(=O)C(C)Cc1ccccc1)C(=O)NCc1ccccc1 (single isomer, unassigned) [2-methyl-3-phenylpropionyl-His--Sta--Leu--benzylamide ("A" Isomer), 2-methyl-3-phenylpropionyl-His-Sta-Leu-benzylamide] | – | – | inhibition at 1.3 µM (hog kidney renin; pH 7.3, at 1.3 × 10^-6 M, read-out: inhibition of renin activity at 1.3 × 10^-6 (printed in the I50 column)): 15% |
| CC(C)C[C@H](NC(=O)C[C@H](O)[C@H](Cc1ccccc1)NC(=O)[C@H](Cc1c[nH]cn1)NC(=O)C(CCCc1ccccc1)Cc1ccccc1)C(=O)NCc1ccccc1 (stereo partly drawn) [2-phenylpropyl-3-phenylpropionyl-His-AHPPA-Leu-benzylamide] | 8.1 nM | 23 nM | – |
| CC(C)C[C@H](NC(=O)C[C@H](O)[C@H](CC(C)C)NC(=O)[C@H](Cc1c[nH]cn1)NC(=O)C(Cc1ccccc1)c1ccccc1)C(=O)NCc1ccccc1 (stereo partly drawn) [2,3-diphenylpropionyl-His-Sta-Leu-benzylamide] | 2200 nM | 900 nM | – |
| CC(C)C[C@H](NC(=O)C[C@H](O)[C@H](CC(C)C)NC(=O)[C@H](Cc1c[nH]cn1)NC(=O)C(CCCCc1ccccc1)Cc1ccccc1)C(=O)NCc1ccccc1 (stereo partly drawn) [2-phenylbutyl-3-phenylpropionyl-His-Sta-Leu-benzylamide] | 520 nM | 17 nM | – |
| CCC(Cc1ccccc1)C(=O)N[C@@H](Cc1c[nH]cn1)C(=O)N[C@@H](CC(C)C)[C@@H](O)CC(=O)N[C@@H](CC(C)C)C(=O)NCc1ccccc1 (stereo partly drawn) [2-ethyl-3-phenylpropionyl-His-Sta-Leu-benzylamide] | 1400 nM | – | – |

Second part, led by results:

| IC50 (hog kidney renin) | Ki (human kidney renin) | Molecule | further results |
| --- | --- | --- | --- |
| 14000 nM | – | COC(=O)[C@H](Cc1ccccc1)NC(=O)[C@H](CC(C)C)NC(=O)C[C@H](O)[C@H](CC(C)C)NC(=O)[C@@H](N)Cc1c[nH]cn1 [His--Sta--Leu--Phe--methyl ester, His-Sta-Leu-Phe-methyl ester] (H-H[Sta]LF-OMe) | – |
| 40000 nM | – | CC(C)C[C@H](NC(=O)[C@H](Cc1c[nH]cn1)NC(=O)COc1ccccc1)[C@@H](O)CC(=O)N[C@@H](Cc1ccccc1)C(=O)N[C@@H](Cc1ccccc1)C(N)=O [POA--His--Sta--Phe--Phe--amide, POA-His-Sta-Phe-Phe-amide] (Phenoxyacetyl-H[Sta]FF-NH2) | – |
| 510 nM | 1.1 nM | CC(C)C[C@H](NC(=O)C[C@H](O)[C@H](CC1CCCCC1)NC(=O)[C@H](Cc1c[nH]cn1)NC(=O)COc1ccccc1)C(=O)N[C@@H](Cc1ccccc1)C(N)=O [POA--His--ACHPA--Leu--Phe--amide, POA-His-ACHPA^4 -Leu-Phe-amide] | – |
| 7600 nM | – | CC(C)C[C@H](NC(=O)C[C@H](O)[C@H](CC(C)C)NC(=O)[C@H](Cc1c[nH]cn1)NC(=O)COc1ccccc1)C(=O)N[C@@H](Cc1ccccc1)C(N)=O [POA--His--Sta--Leu--Phe--amide, POA-His-Sta-Leu-Phe-amide] (Phenoxyacetyl-H[Sta]LF-NH2) | – |
| 290 nM | – | CC[C@H](C)[C@H](NC(=O)C[C@H](O)[C@H](CC1CCCCC1)NC(=O)[C@H](Cc1c[nH]cn1)NC(=O)COc1ccccc1)C(=O)NCc1ccccc1 [POA--His--ACHPA--Ile--benzylamide, POA-His-ACHPA-Ile-benzylamide] | – |
| 20 nM | 10 nM | CC(C)C[C@H](NC(=O)C[C@H](O)[C@H](Cc1ccccc1)NC(=O)[C@H](Cc1c[nH]cn1)NC(=O)COc1ccccc1)C(=O)NCc1ccccc1 [POA--His--AHPPA--Leu--benzylamide, Phenoxyacetyl-L-histidyl-(3S,4S)-AHPPA-L-leucyl-benzylamide] | – |
| 1400 nM | – | CC[C@H](C)[C@H](NC(=O)C[C@H](O)[C@H](CC1CCCCC1)NC(=O)[C@H](Cc1c[nH]cn1)NC(=O)COc1ccccc1)C(=O)NCc1ccccn1 [POA-His-ACHPA-Ile-2-pyridylmethylamide] | – |
| 3300 nM | – | COC(=O)[C@H](Cc1ccccc1)NC(=O)[C@H](CC(C)C)NC(=O)C[C@H](O)[C@H](CC(C)C)NC(=O)[C@H](Cc1c[nH]cn1)NC(=O)COc1ccccc1 [POA--His--Sta--Leu--Phe--methyl ester, POA^2 -His-Sta-Leu-Phe-methyl ester] (Phenoxyacetyl-H[Sta]LF-OMe) | – |
